In patent US8367720B2 (Panorama Research Inc., priority 2007, dated 2013):
Counter-ions that a name gives are not always drawn. Like-named read-outs stand apart in the source and are kept apart here.

Legend:
[1] = test system: Staphylococcus aureus MRSA 5676; assay: Inhibition zone test (holing method); format: cell-based; conditions: 37° C., 24 h; compounds 0.05 mg/well, vancomycin 0.15 mg/well
Description: (§1) After being cultured at 37° C. for 24 h, the sizes of inhibition zones were measured.

[2] = test system: Staphylococcus aureus MRSA 5677; assay: Inhibition zone test (holing method); format: cell-based; conditions: 37° C., 24 h; compounds 0.05 mg/well, vancomycin 0.15 mg/well
Description: as §1

[3] = test system: Staphylococcus aureus wild type; assay: Test of minimal inhibitory concentration (MIC); format: cell-based; conditions: two-fold dilution, 37° C., 24 h, absorbance 595 nm
[4] = test system: MRSA5676; assay: Test of minimal inhibitory concentration (MIC); format: cell-based, Staphylococcus aureus; conditions: two-fold dilution, 37° C., 24 h, absorbance 595 nm
[5] = test system: MRSA5677; assay: Test of minimal inhibitory concentration (MIC); format: cell-based, Staphylococcus aureus; conditions: two-fold dilution, 37° C., 24 h, absorbance 595 nm
[6] = test system: L1210 cells; format: cell-based
Description: The cells were cultured in an incubator at 37° C., 5% CO2 and saturated humidity. The culture medium was removed, the cells were washed with PBS twice, fixed at −20° C. overnight. Then the cells were centrifuged again, washed with PBS to remove ethanol, cultured with RNase A (200 μg/mL, Sigma) at 37° C. for 1 h, stained with PI (50 μg/mL, Sigma) in dark for 30 min, and detected by using a flow cytometer.

[7] = test system: rats with STZ-induced diabetes mellitus; assay: Therapeutical effects on STZ-induced diabetes mellitus in rats; conditions: Day 0, before treatment
Description: 30 Female SD rats, 180-220 g, fasted for 16 h, were subjected to intraperitoneal injection of 60 mg/kg of STZ (purchased from Sigma Company). After 72 h, blood samples were collected from the rats by cutting their tails after fasting 16 h, and blood glucose values were measured by using a blood glucose analyzer (Johnson & Johnson Company). […] Animals were weighed, orbital bleeded, and the sera were separated. According to the instructions of kit (Zhejiang Dongou Biotechnology Co., Ltd.), the contents of triglyceride and total cholesterol were measured. […] The rats of vehicle group were treated with an equivalent volume of solvent (20% DMSO in H2O). After being fasted for 16 h, the rats were weighed, and bleeded for the measurement of blood glucose, triglyceride and total cholesterol. The obtained data were processed by using one-factor analysis of variance (One-way ANOVA) followed by Student's t-test.

[8] = test system: Bacillus subtilis; assay: Inhibition zone test (holing method); format: cell-based; conditions: 37° C., 24 h; compounds 0.05 mg/well, streptomycin 0.15 mg/well
Description: as §1

[9] = test system: Staphylococcus aureus wild type; assay: Inhibition zone test (holing method); format: cell-based; conditions: 37° C., 24 h; compounds 0.05 mg/well, streptomycin 0.15 mg/well
Description: as §1

[10] = test system: glutathione; conditions: after injection to animals; especially lung, liver and kidney cells; cited from earlier work
[11] = test system: NF-kappaB; conditions: 0.5 mmol/L, HAEC pretreated 48 h, TNF-α 10 U/ml; cited from earlier work
[12] = test system: L1210 leukemia cells; assay: In vitro antitumor activity to L1210 leukemia cells (MTT); format: cell-based
Description: The cells were cultured in an incubator at 37° C., 5% CO2 and saturated humidity for 48 h. Then 5 mg/mL MTT (20 μL/well) was added and cultured at the same conditions for 4 h, DMSO (150 μL/well) was added, and the (570/630 nm) absorbance (A values) was measured by using micro-plate reader.

[13] = test system: Candida albicans; assay: Inhibition zone test (holing method); format: cell-based; conditions: 37° C., 24 h; compounds 0.05 mg/well, nysfungin 0.10 mg/well
Description: as §1

[14] = test system: E. coli; assay: Inhibition zone test (holing method); format: cell-based; conditions: 37° C., 24 h; compounds 0.05 mg/well, gentamicin 0.10 mg/well
Description: as §1

[15] = test system: Pseudomonas aeruginosa; assay: Inhibition zone test (holing method); format: cell-based; conditions: 37° C., 24 h; compounds 0.05 mg/well, gentamicin 0.10 mg/well
Description: as §1

[16] = test system: Pseudomonas aeruginosa; assay: Measurement of growth curve of Pseudomonas aeruginosa; format: cell-based; conditions: 10 mM according to FIG. 2 legend
Description: Pseudomonas aeruginosa was inoculated in LB medium, and cultured at a constant temperature of 37° C. in a shaker overnight.

[17] = test system: suspended Pseudomonas aeruginosa; assay: Experiment of combination with antibiotics; format: cell-based; conditions: Pseudomonas aeruginosa cultured 15 h, OD600; ciprofloxacin 0.017 μg/mL, erythromycin 3.75 μg/mL, Andro 350 μg/mL, AL-1 538 μg/mL (1 μmol/mL)
[18] = test system: secretion of pyocyanin by Pseudomonas aeruginosa; assay: Measurement of pyocyanin; format: cell-based; conditions: 18 h culture, A520; Andro, AL-1 1 mM; Chuanhuning, Yanhuning, Lianbizhi 10 mM (FIG. 3)
Description: Pseudomonas aeruginosa was inoculated in LB medium, then cultured at a constant temperature of 37° C. in a shaker overnight. […] The supernatant was taken and extracted in turn with chloroform and 0.2 N HCl, and A520 values were measured (Zielinshi et al., Biol. Chem. 1991, 266, 9754-9763; May et al., Clin. Microbiology Rev. 1991, 4, 191-206).

[19] = test system: extracellular protease of Pseudomonas aeruginosa; assay: Measurement of extracellular protease; format: cell-based; conditions: azo-casein, A440; Andro, AL-1 1 mM; Chuanhuning, Yanhuning, Lianbizhi 10 mM (FIG. 4)
Description: Pseudomonas aeruginosa was inoculated in LB liquid, and cultured at a constant temperature of 37° C. in a shaker overnight. […] After the bacterial liquids were cultured simultaneously at 37° C. for 6 h and centrifuged, supernatant 100 μL was taken, azo-casein 5 mg was added, […] and CaCl2 10 mM were added, and then they were shaken for reaction at 37° C. for 6 h, and the reaction was terminated by adding EDTA-Na. The A440 values of the supernatants were measured (Zielinshi et al., Biol. Chem. 1991, 266, 9754-9763; May et al., Clin. Microbiology Rev. 1991, 4, 191-206).

[20] = L1210 cells, 48 h, MTT, read-out: IC50

Compound | Inhibition zone diameter, Staphylococcus aureus MRSA 5676 [1] | Inhibition zone diameter, Staphylococcus aureus MRSA 5677 [2] | Inhibition zone diameter, Bacillus Subtilis [8] | Inhibition zone diameter, Staphylococcus aureus Wild type [9] | Inhibition zone diameter, Candida albicans [13] | Inhibition zone diameter, E. coli [14] | Inhibition zone diameter, Pseudomonas aeruginosa [15] | other results
CN[C@H](CC(C)C)C(=O)N[C@H]1C(=O)N[C@@H](CC(N)=O)C(=O)N[C@H]2C(=O)N[C@H]3C(=O)N[C@H](C(=O)N[C@H](C(=O)O)c4cc(O)cc(O)c4-c4cc3ccc4O)[C@H](O)c3ccc(c(Cl)c3)Oc3cc2cc(c3O[C@@H]2O[C@H](CO)[C@@H](O)[C@H](O)[C@H]2O[C@H]2C[C@](C)(N)[C@H](O)[C@H](C)O2)Oc2ccc(cc2Cl)[C@H]1O [Vancomycin] | 20.0 ± 1.00 mm | 21.0 ± 1.00 mm |  |  |  |  |  | MIC, Wild type [3]: 1.56; MIC, MRSA5676 [4]: 1.56; MIC, MRSA5677 [5]: 3.13
COc1cccc2c1C(=O)c1c(O)c3c(c(O)c1C2=O)C[C@@](O)(C(=O)CO)C[C@@H]3O[C@H]1C[C@H](N)[C@H](O)[C@H](C)O1 [Dox, doxorubicin hydrochloride] |  |  |  |  |  |  |  | effect on cell cycle of L1210 cells ([6]; concentration not given): arrested L1210 cells at G2 phase
COc1ccc(Cl)cc1C(=O)NCCc1ccc(S(=O)(=O)NC(=O)NC2CCCCC2)cc1 [Glibenclamide] |  |  |  |  |  |  |  | Blood glucose [7]: 26.9 ± 1.56 mmol/L; Body weight [7]: 201 ± 3.61 g; Total cholesterol [7]: 2.57 ± 1.09 mmol/L; Total triglyceride [7]: 7.84 ± 2.21 mmol/L
[H]/N=C(/N)N[C@H]1[C@H](O)[C@@H](O)[C@H](O[C@@H]2O[C@@H](C)[C@](O)(C=O)[C@H]2O[C@@H]2O[C@@H](CO)[C@H](O)[C@@H](O)[C@@H]2NC)[C@@H](N/C(N)=N\[H])[C@@H]1O [Streptomycin] |  |  | 22.1 ± 1.00 mm | 21.2 ± 1.00 mm |  |  |  | 
O=C(O)CCCCC1CCSS1 (stereo not drawn) [lipoic acid, Alpha-lipoic acid] |  |  |  |  |  |  |  | increase of glutathione level [10]: 30%-70%; inhibition of NF-kappaB activity induced by TNF-α [11]: 81%
potassium sodium dehydroandrographolide succinate [Yanhuning] | ^b (incompetence (inhibition zone diameter <4 mm)) | ^b (incompetence (inhibition zone diameter <4 mm)) | ^b (incompetence (inhibition zone diameter <4 mm)) | ^b (incompetence (inhibition zone diameter <4 mm)) | ^b (incompetence (inhibition zone diameter <4 mm)) | ^b (incompetence (inhibition zone diameter <4 mm)) | ^b (incompetence (inhibition zone diameter <4 mm)) | IC50 [12, 20]: > 100 µM; inhibition of the growth of Pseudomonas aeruginosa (growth curve, A600) [16]: no direct inhibition effect
Nysfungin |  |  |  |  | 10.00 ± 1.00 mm |  |  | 
CC[C@H]1OC(=O)[C@H](C)[C@@H](O[C@H]2C[C@@](C)(OC)[C@@H](O)[C@H](C)O2)[C@H](C)[C@@H](O[C@@H]2O[C@H](C)C[C@H](N(C)C)[C@H]2O)[C@](C)(O)C[C@@H](C)C(=O)[C@H](C)[C@@H](O)[C@]1(C)O [Erythromycin] |  |  |  |  |  |  |  | Survival Rate [17]: 93.9%
C=C1CCC2[C@](C)(CO)[C@H](O)CC[C@@]2(C)[C@@H]1C/C=C1/C(=O)OCC1OC(=O)/C=C/c1ccc([N+](=O)[O-])cc1 (some centres unmarked) [ANO, 14-[4′-nitrocinnamyl]-3,19-dihydroxy-andrographolide] | 8.1 ± 0.64 mm | 6.4 ± 0.42 mm | ^b (incompetence (inhibition zone diameter <4 mm)) | 8.3 ± 0.99 mm | ^b (incompetence (inhibition zone diameter <4 mm)) | ^b (incompetence (inhibition zone diameter <4 mm)) | ^b (incompetence (inhibition zone diameter <4 mm)) | IC50 ([12]; Mus musculus, L1210 cells, 48 h, MTT, read-out: IC50): 9.96 ± 2.25 µM; effect on cell cycle / apoptosis of L1210 cells ([6]; 10 μM, after 12 h): arrest L1210 cells at G1 prophase; MIC, Wild type [3]: 62.5; MIC, MRSA5676 [4]: 62.5; MIC, MRSA5677 [5]: 25; inhibition of the secretion of pyocyanin [18]: AL-1>Andro>ANO; inhibition of the production/activity of extracellular protease [19]: AL-1>ANO>Andro
C=C1CCC2[C@@](C)(CC[C@@H](O)[C@@]2(C)CO)C1CC(C1=CCOC1=O)S(=O)(=O)[O-].[Na+] (some centres unmarked) [Lianbizhi, andrographolide sodium bisulfite] | ^b (incompetence (inhibition zone diameter <4 mm)) | ^b (incompetence (inhibition zone diameter <4 mm)) | ^b (incompetence (inhibition zone diameter <4 mm)) | ^b (incompetence (inhibition zone diameter <4 mm)) | ^b (incompetence (inhibition zone diameter <4 mm)) | ^b (incompetence (inhibition zone diameter <4 mm)) | ^b (incompetence (inhibition zone diameter <4 mm)) | IC50 ([12]; Mus musculus, L1210, 48 h): > 100 µM; inhibition of the growth of Pseudomonas aeruginosa (growth curve, A600) [16]: no direct inhibition effect
potassium dehydroandrograpolide succinate [Chuanhuning] | ^b (incompetence (inhibition zone diameter <4 mm)) | ^b (incompetence (inhibition zone diameter <4 mm)) | ^b (incompetence (inhibition zone diameter <4 mm)) | ^b (incompetence (inhibition zone diameter <4 mm)) | ^b (incompetence (inhibition zone diameter <4 mm)) | ^b (incompetence (inhibition zone diameter <4 mm)) | ^b (incompetence (inhibition zone diameter <4 mm)) | IC50 [12, 20]: > 100 µM; inhibition of the growth of Pseudomonas aeruginosa (growth curve, A600) [16]: no direct inhibition effect
Gentamicin |  |  |  |  |  | 20.1 ± 1.00 mm | 21.0 ± 1.00 mm | 
